# Results taken from ChEMBL document CHEMBL1145562, “Substituted dipiperidine alcohols as potent CCR2 antagonists” (Bioorg Med Chem Lett, 2008).
# Molecular target: T1, C-C chemokine receptor type 2 (Homo sapiens, UniProt P41597)
# Experiment: Binding affinity at human CCR2 receptor
# T1 sequence (P41597 whole entry): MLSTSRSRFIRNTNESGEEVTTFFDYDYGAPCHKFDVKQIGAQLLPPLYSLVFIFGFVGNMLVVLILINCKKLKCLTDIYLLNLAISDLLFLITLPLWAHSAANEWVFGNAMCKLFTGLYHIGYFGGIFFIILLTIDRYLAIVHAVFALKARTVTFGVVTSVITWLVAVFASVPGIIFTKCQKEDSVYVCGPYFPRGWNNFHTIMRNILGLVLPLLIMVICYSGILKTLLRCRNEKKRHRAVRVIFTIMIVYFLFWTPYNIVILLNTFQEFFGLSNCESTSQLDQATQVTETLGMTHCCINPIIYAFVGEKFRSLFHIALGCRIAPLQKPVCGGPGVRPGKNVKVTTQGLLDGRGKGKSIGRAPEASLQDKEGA
row,SMILES,IC50
1,O=C(/C=C/c1cc(F)c(F)c(F)c1)N1CCC([C@@H](CO)N2CCC(c3c[nH]c4ccccc34)CC2)CC1,2.4 nM
2,CC(=O)Nc1ccc2[nH]cc(C3CCN(C(CO)C4CCN(C(=O)/C=C/c5cc(F)c(F)c(F)c5)CC4)CC3)c2c1 (configuration not stated),2 nM
3,CN(C)CC(C1CCN(C(=O)/C=C/c2cc(F)c(F)c(F)c2)CC1)N1CCC(c2c[nH]c3ccccc23)CC1 (configuration not stated),4800 nM
4,O=C(/C=C/c1cccc(Br)c1)N1CCC(C(CO)N2CCC(c3c[nH]c4ccccc34)CC2)CC1 (configuration not stated),9 nM
5,O=C(/C=C/c1cc(F)c(F)c(F)c1)N1CCC([C@H](CO)N2CCC(c3c[nH]c4ccccc34)CC2)CC1,10 nM
6,O=C(/C=C/c1ccc(F)c(Br)c1)N1CCC(C(CO)N2CCC(c3c[nH]c4ccccc34)CC2)CC1 (configuration not stated),2 nM
7,COC(=O)c1ccc2[nH]cc(C3CCN(C(CO)C4CCN(C(=O)/C=C/c5cc(F)c(F)c(F)c5)CC4)CC3)c2c1 (configuration not stated),20 nM
8,COC(=O)c1ccc2[nH]cc(C3CCN(C(CO)C4CCN(C(=O)Nc5ccc(Cl)c(Cl)c5)CC4)CC3)c2c1 (configuration not stated),50 nM
9,O=C(O)c1ccc2[nH]cc(C3CCN(C(CO)C4CCN(C(=O)Nc5ccc(Cl)c(Cl)c5)CC4)CC3)c2c1 (configuration not stated),10 nM
10,Nc1ccc2[nH]cc(C3CCN(C(CO)C4CCN(C(=O)/C=C/c5cc(F)c(F)c(F)c5)CC4)CC3)c2c1 (configuration not stated),1 nM
11,O=C(/C=C/c1cc(F)c(F)c(F)c1)N1CCC(C(CO)N2CCC(c3c[nH]c4ccc(O)cc34)CC2)CC1 (configuration not stated),1 nM

# Molecular target: T1, C-C chemokine receptor type 2
# Experiment: Antagonist activity at CCR2 receptor expressed in THP1 cells assessed as inhibition of MCP-1-induced chemotaxis
row,SMILES,IC50
1,O=C(/C=C/c1cc(F)c(F)c(F)c1)N1CCC([C@@H](CO)N2CCC(c3c[nH]c4ccccc34)CC2)CC1,3.5 nM
